Results published in ChEMBL document CHEMBL1781964, “Exploring molecular shape analysis of styrylquinoline derivatives as HIV-1 integrase inhibitors” (Eur J Med Chem, 2008).

target: Human immunodeficiency virus type 1 integrase (Human immunodeficiency virus 1, UniProt Q7ZJM1); experiment: Inhibition of HIV1 integrase 3' processing activity
Sequence (Q7ZJM1 whole entry): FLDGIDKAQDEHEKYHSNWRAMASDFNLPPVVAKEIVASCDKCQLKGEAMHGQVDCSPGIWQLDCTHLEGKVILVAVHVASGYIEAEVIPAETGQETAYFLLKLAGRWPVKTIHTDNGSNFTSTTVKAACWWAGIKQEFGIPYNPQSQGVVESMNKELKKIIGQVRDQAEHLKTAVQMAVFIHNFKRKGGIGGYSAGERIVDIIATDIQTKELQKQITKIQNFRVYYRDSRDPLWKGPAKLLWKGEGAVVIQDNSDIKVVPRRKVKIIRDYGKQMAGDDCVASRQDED

`Oc1cccc2ccc(/C=C/c3ccccc3)nc12` and `CC(=O)Oc1cccc2ccc(/C=C/c3ccccc3)nc12` are the same in IC50: 100 µM for the first, 100 µM for the second.

`O=[N+]([O-])c1cccc2ccc(/C=C/c3ccc(O)c(O)c3)nc12` and `Nc1cccc2ccc(/C=C/c3ccc(O)c(O)c3)nc12` are the same in IC50: 100 µM for the first, 100 µM for the second.

First: O=C(O)c1ccc2ccc(/C=C/c3ccc(O)c(O)c3O)nc2c1O
Second: Cc1cc(/C=C/c2ccc3ccc(C(=O)O)c(O)c3n2)ccc1O
The IC50 of the first is 9.3-fold lower: 0.302 µM for the first, 2.82 µM for the second. The first is the more potent here.

`Oc1ccc(/C=C/c2ccc3c(Cl)cc(Cl)c(O)c3n2)cc1O` and `COC(=O)c1ccc2ccc(/C=C/c3ccc(O)c(O)c3)nc2c1O` are the same in IC50: 100 µM for the first, 100 µM for the second.

`Cc1ccc2cccc(OC(=O)/C=C/c3ccc(O)c(O)c3)c2n1` and `COc1ccc(/C=C/C(=O)Oc2cccc3ccc(C)nc23)cc1OC` are the same in IC50: 100 µM for the first, 100 µM for the second.

`Oc1ccc(/C=C/c2ccc3ccccc3n2)cc1O` and `Oc1cccc2ccc(/C=C/c3ccc4cccc(O)c4n3)nc12` are the same in IC50: 100 µM for the first, 100 µM for the second.

`Cc1ccc2ccc(C(=O)O)c(O)c2n1` and `Cc1ccc2cccc(O)c2n1` [8-HYDROXY QUINALDINE] are the same in IC50: 100 µM for the first, 100 µM for the second.

`CC(=O)Oc1ccc(/C=C/c2ccc3cccc(OC(C)=O)c3n2)cc1OC(C)=O` was tested, and the IC50 was 100 µM.
